From patent publication US11241011B2, “Microbiocidal quinoline (thio)carboxamide derivatives” (SYNGENTA PARTICIPATIONS AG, priority 2017, dated 2022)

What was measured:
Gaeumannomyces graminis = Gaeumannomyces graminis / liquid culture (take-all of cereals); type: cell-based; conditions: 20 ppm, growth inhibition photometrically 4-5 days after application, vs untreated control
Experimental: Gaeumannomyces Graminis/Liquid Culture (Take-All of Cereals)
Mycelial fragments of the fungus from cryogenic storage were directly mixed into nutrient broth (PDB potato dextrose broth). After placing a (DMSO) solution of test compound into a microtiter plate (96-well format), the nutrient broth containing the fungal spores iss added. The test plates are incubated at 24° C. and the inhibition of growth is determined photometrically 4-5 days after application.

melting point [°C] | Structure (SMILES) | control of Gaeumannomyces graminis (Gaeumannomyces graminis)
125 to 127 | C#CCC(C)(CC(C)C)C(=O)Nc1cnc2c(F)cccc2c1 (stereo not shown) [Compound E-3, N-(8-fluoro-3-quinolyl)-2-isobutyl-2-methyl-pent-4-ynamide] | 
182 to 184 | O=C(Nc1cnc2c(F)cccc2c1)C(CC#CC1CC1)CC(F)(F)F (stereo not shown) [Compound E-2, 5-cyclopropyl-N-(8-fluoro-3-quinolyl)-2-(2,2,2-trifluoroethyl)pent-4-ynamide] | 

Structure (SMILES) | melting point [°C] | control of Gaeumannomyces graminis (Gaeumannomyces graminis)
CC#CCC(C)(CC(C)C)C(=O)Nc1cnc2c(F)cccc2c1 (stereo not shown) [Compound E-5, N-(8-fluoro-3-quinolyl)-2-isobutyl-2-methyl-hex-4-ynamide] | 139 to 140 | at least 80%
